Target: central benzodiazepine receptors
Assay: binding to central benzodiazepine receptors, displacement of 3H-flunitrazepam (test of Speth et al.)
Conditions: Table 1a

Question: For `CC(=O)Cc1c(-c2ccc(C)cc2)nc2ccc(C)cn12` [Example 2d, 1-(6-Methyl-2-p-tolyl-imidazo[1,2-a]pyridin-3-yl)-propan-2-one], which IC50 is on record?
Answer: 439 nM

Question: With `Cc1ccc(-c2nc3ccc(C)cn3c2CC(=O)c2ccc(Cl)cc2)cc1` [Example 3d, 1-(4-Chloro-phenyl)-2-(6-methyl-2-p-tolyl-imidazo[1,2-a]pyridin-3-yl)-ethanone] as the compound, how does the IC50 read?
Answer: 4060 nM

Question: With `Cc1ccc(-c2nc3ccc(C)cn3c2CC(=O)c2ccccc2)cc1` [Example 4d, 2-(6-Methyl-2-p-tolyl-imidazo[1,2-a]pyridin-3-yl)-1-phenyl-ethanone] as the compound, how does the IC50 read?
Answer: 1750 nM

Question: With `CCCCCC(=O)Cc1c(-c2ccc(C)cc2)nc2ccc(C)cn12` [Example 5d, 1-(6-Methyl-2-p-tolyl-imidazo[1,2-a]pyridin-3-yl)-heptan-2-one] as the compound, how does the IC50 read?
Answer: 420 nM

Question: For `Cc1ccc(-c2nc3ccc(C)cn3c2CC(=O)CC(C)C)cc1` [—CH2CH(CH3)2], which IC50 is on record?
Answer: > 10000 nM

Target: peripheral benzodiazepine receptors (Rattus norvegicus, UniProt P16257)
Assay: biochemical
Assay type: binding
Conditions: IC50 (nM) peripheral, Table 1a
Experimental: Compounds of the invention were assessed for their binding to the benzodiazepine receptor by the test of Speth et al. [Life Sci. 24, 351 (1979)] for central benzodiazepine receptors and LeFur et al. [Life Sci. 33, 449 (1983)] for peripheral receptors. The compounds were tested first at 1.0E-09, 1.0E-07 and 1.0E-05 M in single determination. […] The specific ligand binding to the receptor is defined as the difference between the total binding and the nonspecific binding determined in the presence of an excess of unlabelled ligand. In each experiment, the respective reference compound was tested concurrently with the test compounds in order to assess the assay suitability. It was tested at several concentrations (for IC50 value determination), and the data were compared with historical values. The assay was rendered valid if suitability criteria were met.

Sequence of peripheral benzodiazepine receptors (P16257 whole entry): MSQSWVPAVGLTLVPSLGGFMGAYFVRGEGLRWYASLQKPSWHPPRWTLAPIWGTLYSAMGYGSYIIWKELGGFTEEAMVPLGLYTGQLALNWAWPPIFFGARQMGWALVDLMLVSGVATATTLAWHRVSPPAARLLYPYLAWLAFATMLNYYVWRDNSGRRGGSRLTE

Question: Which IC50 does the source give for `Cc1ccc(-c2nc3ccc(C)cn3c2CC(=O)c2ccc(Cl)cc2)cc1` [Example 3d, 1-(4-Chloro-phenyl)-2-(6-methyl-2-p-tolyl-imidazo[1,2-a]pyridin-3-yl)-ethanone] here?
Answer: 594 nM

Question: Which IC50 does the source give for `Cc1ccc(-c2nc3ccc(C)cn3c2CC(=O)c2ccccc2)cc1` [Example 4d, 2-(6-Methyl-2-p-tolyl-imidazo[1,2-a]pyridin-3-yl)-1-phenyl-ethanone] here?
Answer: 386 nM

Same assay, conditions: Table 1a; read-out: IC50 (nM) peripheral

Question: With `Cc1ccc(-c2nc3ccc(C)cn3c2CC(=O)C2CCCC2)cc1` as the compound, how does the IC50 read?
Answer: 310 nM

Question: Which IC50 does the source give for `Cc1ccc(-c2nc3ccc(C)cn3c2CC(=O)C(C)C)cc1` here?
Answer: 820 nM

Question: Which IC50 does the source give for `Cc1ccc(-c2nc3ccc(C)cn3c2CC(=O)C2CC2)cc1` here?
Answer: 560 nM

Question: Which IC50 does the source give for `Cc1ccc(-c2nc3ccc(C)cn3c2CC(=O)c2ccsc2)cc1` here?
Answer: 240 nM

Question: For `Cc1ccc(-c2nc3ccc(C)cn3c2CC(=O)c2nccs2)cc1`, which IC50 is on record?
Answer: 1600 nM

Question: For `Cc1ccc(-c2nc3ccc(C)cn3c2CC(=O)c2ccco2)cc1`, which IC50 is on record?
Answer: 1600 nM

Question: For `Cc1ccc(-c2nc3ccc(C)cn3c2CC(=O)c2cncnc2)cc1`, which IC50 is on record?
Answer: 3400 nM

Question: Which IC50 does the source give for `Cc1ccc(-c2nc3ccc(C)cn3c2CC(=O)c2sc(C)nc2C)cc1` here?
Answer: 2000 nM

Question: For `Cc1ccc(-c2nc3ccc(C)cn3c2CC(=O)c2ccoc2)cc1`, which IC50 is on record?
Answer: 400 nM

Question: With `Cc1ccc(-c2nc3ccc(C)cn3c2CC(=O)c2c(C)nn(C)c2C)cc1` as the compound, how does the IC50 read?
Answer: > 10000 nM

Question: Which IC50 does the source give for `Cc1ccc(-c2nc3ccc(C)cn3c2CC(=O)c2nn(-c3ccccc3)nc2C)cc1` here?
Answer: 7600 nM

Question: Which IC50 does the source give for `Cc1ccc(-c2nc3ccc(C)cn3c2CC(=O)c2c(C)nn(-c3ccccc3)c2C)cc1` here?
Answer: > 10000 nM

Question: With `Cc1ccc(-c2nc3ccc(C)cn3c2CC(=O)c2c(C)nc3cc(C)ccn23)cc1` as the compound, how does the IC50 read?
Answer: 210 nM

Question: Which IC50 does the source give for `Cc1ccc(-c2nc3ccc(C)cn3c2CC(=O)c2cc3ccccc3s2)cc1` here?
Answer: 220 nM

Question: With `Cc1ccc(-c2nc3ccc(C)cn3c2CC(=O)c2cc3c(C)nn(C)c3s2)cc1` as the compound, how does the IC50 read?
Answer: 2100 nM

Question: With `Cc1ccc(-c2nc3ccc(C)cn3c2CC(=O)Cc2cccs2)cc1` as the compound, how does the IC50 read?
Answer: 59 nM

Question: For `Cc1ccc(-c2nc3ccc(C)cn3c2CC(=O)C2COc3ccccc3O2)cc1` (stereo not shown), which IC50 is on record?
Answer: 32 nM

Question: Which IC50 does the source give for `Cc1ccc(-c2nc3ccc(C)cn3c2CC(=O)c2snnc2C)cc1` here?
Answer: 320 nM

Question: Which IC50 does the source give for `Cc1ccc(-c2nc3ccc(C)cn3c2CC(=O)c2sccc2Cl)cc1` here?
Answer: 840 nM

Question: Which IC50 does the source give for `Cc1ccc(-c2nc3ccc(C)cn3c2CC(=O)c2cncn2C)cc1` here?
Answer: 3100 nM

Question: Which IC50 does the source give for `Cc1ccc(-c2nc3ccc(C)cn3c2CC(=O)c2c(C)noc2C)cc1` here?
Answer: 1200 nM

Question: Which IC50 does the source give for `Cc1ccc(-c2nc3ccc(C)cn3c2CC(=O)c2scc(S(C)(=O)=O)c2Cl)cc1` here?
Answer: 730 nM

Question: For `Cc1ccc(-c2nc3ccc(C)cn3c2CC(=O)c2cc(C)nn2C)cc1`, which IC50 is on record?
Answer: 810 nM

Question: With `Cc1ccc(-c2nc3ccc(C)cn3c2CC(=O)c2cc(C)on2)cc1` as the compound, how does the IC50 read?
Answer: 560 nM

Question: Which IC50 does the source give for `Cc1ccc(-c2nc3ccc(C)cn3c2CC(=O)c2cn(C)cn2)cc1` here?
Answer: > 10000 nM

Question: For `Cc1ccc(-c2nc3ccc(C)cn3c2CC(=O)c2csc(-c3cccs3)n2)cc1`, which IC50 is on record?
Answer: > 10000 nM

Question: Which IC50 does the source give for `Cc1ccc(-c2nc3ccc(C)cn3c2CC(=O)c2sccc2C)cc1` here?
Answer: 230 nM

Question: Which IC50 does the source give for `Cc1ccc(-c2nc3ccc(C)cn3c2CC(=O)c2nsc(Cl)c2Cl)cc1` here?
Answer: 1700 nM

Question: For `Cc1ccc(-c2nc3ccc(C)cn3c2CC(=O)c2ccc(C)s2)cc1`, which IC50 is on record?
Answer: 1800 nM

Question: For `Cc1ccc(-c2nc3ccc(C)cn3c2CC(=O)c2cc(C)n(C)n2)cc1`, which IC50 is on record?
Answer: 1300 nM

Question: With `Cc1ccc(-c2nc3ccc(C)cn3c2CC(=O)c2nccn2C)cc1` as the compound, how does the IC50 read?
Answer: > 10000 nM

Question: For `CCn1nc(C)c(Br)c1C(=O)Cc1c(-c2ccc(C)cc2)nc2ccc(C)cn12`, which IC50 is on record?
Answer: 2100 nM

Question: Which IC50 does the source give for `Cc1ccc(-c2nc3ccc(C)cn3c2CC(=O)c2nnn(C)c2C)cc1` here?
Answer: > 10000 nM

Question: Which IC50 does the source give for `CSc1ccc(C(=O)Cc2c(-c3ccc(C)cc3)nc3ccc(C)cn23)s1` here?
Answer: 6000 nM

Question: Which IC50 does the source give for `Cc1ccc(-c2nc3ccc(C)cn3c2CC(=O)c2cn(-c3cccc(C)n3)cn2)cc1` here?
Answer: 6600 nM

Question: For `Cc1ccc(-c2nc3ccc(C)cn3c2CC(=O)CCc2ccccc2)cc1`, which IC50 is on record?
Answer: 290 nM

Question: With `CC(=O)Cc1c(-c2ccc(C)cc2)nc2ccc(C)cn12` [Example 2d, 1-(6-Methyl-2-p-tolyl-imidazo[1,2-a]pyridin-3-yl)-propan-2-one] as the compound, how does the IC50 read?
Answer: 231 nM

Question: Which IC50 does the source give for `CCCCCC(=O)Cc1c(-c2ccc(C)cc2)nc2ccc(C)cn12` [Example 5d, 1-(6-Methyl-2-p-tolyl-imidazo[1,2-a]pyridin-3-yl)-heptan-2-one] here?
Answer: 269 nM

Question: For `Cc1ccc(-c2nc3ccc(C)cn3c2CC(=O)c2cccs2)cc1` [drawing 97], which IC50 is on record?
Answer: 153 nM

Question: With `COc1ccsc1C(=O)Cc1c(-c2ccc(C)cc2)nc2ccc(C)cn12` [drawing 131] as the compound, how does the IC50 read?
Answer: 180 nM

Question: Which IC50 does the source give for `Cc1ccc(-c2nc3ccc(C)cn3c2CC(=O)CC(C)C)cc1` [—CH2CH(CH3)2] here?
Answer: 820 nM

Same assay, conditions: Table 1b; read-out: IC50 (nM) peripheral

Question: For `Cc1cc(Cl)cn2c(CC(=O)c3ccoc3)c(-c3ccc(Cl)cc3)nc12`, which IC50 is on record?
Answer: 350 nM

Question: Which IC50 does the source give for `Cc1cc(Cl)cn2c(CC(=O)c3cccs3)c(-c3ccc(Cl)cc3)nc12` here?
Answer: 590 nM

Question: Which IC50 does the source give for `O=C(Cc1c(-c2ccc(Cl)cc2)nc2ccccn12)c1cccs1` here?
Answer: 2600 nM

Question: For `O=C(Cc1c(-c2ccc(Cl)cc2)nc2ccc(Cl)cn12)c1cccs1`, which IC50 is on record?
Answer: 290 nM

Question: For `COc1ccc(-c2nc3ccc(C)cn3c2CC(=O)c2cc(C)nn2C)cc1`, which IC50 is on record?
Answer: 2300 nM

Question: For `COc1ccc(-c2nc3ccc(C)cn3c2CC(=O)c2cccs2)cc1`, which IC50 is on record?
Answer: 2400 nM

Same assay, conditions: Table 2; read-out: IC50 (nM) peripheral

Question: For `Cc1ccc(-c2nc3ccc(C)cn3c2C2CCCNC2=O)cc1` (stereo not shown), which IC50 is on record?
Answer: > 10000 nM

Question: For `Cc1ccc(-c2nc3ccc(C)cn3c2C2CC=CCN(C)C2=O)cc1` (stereo not shown), which IC50 is on record?
Answer: 210 nM

Question: With `Cc1ccc(-c2nc3ccc(C)cn3c2C2CCCN(C)C2=O)cc1` (stereo not shown) [drawing 151] as the compound, how does the IC50 read?
Answer: 1240 nM

Question: With `Cc1ccc(-c2nc3ccc(C)cn3c2C2CCCN(C)C2=O)cc1` (stereo not shown) [drawing 155] as the compound, how does the IC50 read?
Answer: 1500 nM

Question: With `Cc1ccc(-c2nc3ccc(C)cn3c2C2CCCN(C)C2=O)cc1` (stereo not shown) [drawing 156] as the compound, how does the IC50 read?
Answer: > 10000 nM

Tested on: not listed separately
Assay: maze test, which tests anxiety
Assay type: in vivo
Conditions: at 10 mg/kg
Experimental: The compounds of Example 1d (also found in Example 6d), Example 22d, and Example 35d, were also tested in vivo using the maze test, which tests anxiety [Montgomery, J. Comparative and Physiological Psychology 48, 254–60 (1955); Handley et al., Naunyn-Schmiedeberg's Archives of Pharmacology 327, 1–5 (1984); Lister, Psychopharm. 92, 180–85 (1987); Pellow et al., J. Neuroscience Methods 14, 149–67 (1985); Rodgers et al., Ethology and Psychopharmacology, S. J. Cooper and C. A. Hendrie (eds), John Wiley & Sons, Ltd., 9–43 (1994); and Trullas et al., Psychopharm. 111, 323–31 (1993)]. The results of the maze test for these compounds are found in FIGS. 1a, 1b, 2a, 2b, 3a, and 3b. FIGS. 1a, 2a, and 3a are graphs of the Number of Entries in Open Arms vs. mg/kg (dose of administered compound). FIGS. 1b, 2b, and 3b plot the Percent of Time Spent in Open Arms vs. mg/kg (dose of administered compound). […] The results of the maze test are accepted by persons of skill in the art as predictive of therapeutic utility.

Question: With `Cc1ccc(-c2nc3ccc(C)cn3c2CC(=O)c2cccs2)cc1` [Example 1d, 2-(6-Methyl-2-p-tolyl-imidazo[1,2-a]pyridin-3-yl)-1-thiophen-2-yl-ethanone] as the compound, how does the “maze test activity (Number of Entries in Open Arms, Percent of Time Spent in Open Arms)” value read?
Answer: statistically significant activity

Question: For `COc1ccsc1C(=O)Cc1c(-c2ccc(C)cc2)nc2ccc(C)cn12` [Example 22d, 1-(3-Methoxy-thiophen-2-yl)-2-(6-methyl-2-p-tolyl-imidazo[1,2-a]pyridin-3-yl)-ethanone], which “maze test activity (Number of Entries in Open Arms, Percent of Time Spent in Open Arms)” value is on record?
Answer: statistically significant activity

From US7148353B2 (priority 2003, dated 2006)
